Data reported in PubChem BioAssay (NCI).
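Cultured in 96-well plates, cells were exposed to test compound for 48 hours across five concentrations. TGI: concentration producing complete growth inhibition.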

Tests used:
Assay in all cases: DTP human tumour cell line panel, 48 h
CCRF-CEM leukemia = tested on: CCRF-CEM leukemia
DU-145 prostate = tested on: DU-145 prostate
HOP-92 NSCLC = tested on: HOP-92 NSCLC
K-562 leukemia = tested on: K-562 leukemia
MDA-MB-231 breast = tested on: MDA-MB-231 breast
MDA-MB-435 = tested on: MDA-MB-435
NCI-H460 lung = tested on: NCI-H460 lung
NCI/ADR-RES ovarian = tested on: NCI/ADR-RES ovarian
OVCAR-3 ovarian = tested on: OVCAR-3 ovarian
OVCAR-4 ovarian = tested on: OVCAR-4 ovarian
PC-3 prostate = tested on: PC-3 prostate
RPMI-8226 leukemia = tested on: RPMI-8226 leukemia
SF-268 CNS = tested on: SF-268 CNS
SF-295 CNS = tested on: SF-295 CNS
SK-MEL-2 melanoma = tested on: SK-MEL-2 melanoma
SK-MEL-28 melanoma = tested on: SK-MEL-28 melanoma
SK-OV-3 ovarian = tested on: SK-OV-3 ovarian
SNB-75 CNS = tested on: SNB-75 CNS
TK-10 renal = tested on: TK-10 renal
U251 CNS = tested on: U251 CNS

In the case of COc1ccc(CCc2ccc3c(c2)OCO3)cc1, the TGI (CCRF-CEM leukemia) is reported as greater than 100 µM, the TGI (DU-145 prostate) is reported as greater than 100 µM and the TGI (HOP-92 NSCLC) is reported as greater than 100 µM. The TGI (K-562 leukemia) was greater than 100 µM, the TGI (MDA-MB-231 breast) was greater than 100 µM and the TGI (MDA-MB-435) was 42.6 µM. It also gave a TGI (NCI-H460 lung) greater than 100 µM, a TGI (NCI/ADR-RES ovarian) greater than 100 µM and a TGI (OVCAR-3 ovarian) greater than 100 µM. The TGI (OVCAR-4 ovarian) was greater than 100 µM, the TGI (PC-3 prostate) was greater than 100 µM and the TGI (RPMI-8226 leukemia) was greater than 100 µM. It also gave a TGI (SF-268 CNS) greater than 100 µM, a TGI (SF-295 CNS) greater than 100 µM and a TGI (SK-MEL-2 melanoma) of 92.4 µM. It also gave a TGI (SK-MEL-28 melanoma) greater than 100 µM, a TGI (SK-OV-3 ovarian) greater than 100 µM and a TGI (SNB-75 CNS) greater than 100 µM. For the same compound, the TGI (TK-10 renal) was greater than 100 µM and the TGI (U251 CNS) was greater than 100 µM.

COC(=O)[C@@H](NC(=O)[C@H](N)Cc1ccc(N(CCCl)CCCl)cc1)C(C)C showed a TGI (CCRF-CEM leukemia) greater than 29.6 µM, a TGI (DU-145 prostate) of 59.1 µM and a TGI (HOP-92 NSCLC) of 5.72 µM. The TGI (K-562 leukemia) was 40.3 µM, the TGI (MDA-MB-231 breast) was 57.7 µM and the TGI (MDA-MB-435) was 47.5 µM. The TGI (NCI-H460 lung) was 26.3 µM, the TGI (NCI/ADR-RES ovarian) was 40.8 µM and the TGI (OVCAR-3 ovarian) was greater than 72.8 µM. The TGI (OVCAR-4 ovarian) was 36.7 µM, the TGI (PC-3 prostate) was greater than 100 µM and the TGI (RPMI-8226 leukemia) was 34 µM. The TGI (SF-268 CNS) was 97.1 µM, the TGI (SF-295 CNS) was greater than 100 µM and the TGI (SK-MEL-2 melanoma) was greater than 100 µM. For the same compound, the TGI (SK-MEL-28 melanoma) was 40.4 µM, the TGI (SK-OV-3 ovarian) was greater than 100 µM and the TGI (SNB-75 CNS) was 66.6 µM. The TGI (TK-10 renal) was 56.7 µM and the TGI (U251 CNS) was greater than 100 µM.

CCN(CC)/[N+]([O-])=N/OCOC gave a TGI (CCRF-CEM leukemia) greater than 100 µM, a TGI (DU-145 prostate) greater than 100 µM and a TGI (HOP-92 NSCLC) greater than 100 µM. For the same compound, the TGI (K-562 leukemia) was greater than 100 µM, the TGI (MDA-MB-231 breast) was greater than 100 µM and the TGI (MDA-MB-435) was greater than 100 µM. It also gave a TGI (NCI-H460 lung) greater than 100 µM, a TGI (NCI/ADR-RES ovarian) greater than 100 µM and a TGI (OVCAR-3 ovarian) greater than 100 µM. It also gave a TGI (OVCAR-4 ovarian) greater than 100 µM, a TGI (PC-3 prostate) greater than 100 µM and a TGI (RPMI-8226 leukemia) greater than 100 µM. The TGI (SF-268 CNS) was greater than 100 µM, the TGI (SF-295 CNS) was greater than 100 µM and the TGI (SK-MEL-2 melanoma) was greater than 100 µM. For the same compound, the TGI (SK-MEL-28 melanoma) was greater than 100 µM, the TGI (SK-OV-3 ovarian) was greater than 100 µM and the TGI (SNB-75 CNS) was greater than 100 µM. It also gave a TGI (TK-10 renal) greater than 100 µM and a TGI (U251 CNS) greater than 100 µM.

CC(C)(C)C1=CC(=C2C=Cc3cc(O)ccc3O2)C=C(C(C)(C)C)C1=O was tested, and the TGI (CCRF-CEM leukemia) was 3.45 µM, the TGI (DU-145 prostate) was 3.03 µM and the TGI (HOP-92 NSCLC) was 3.19 µM. It also gave a TGI (K-562 leukemia) of 8.51 µM, a TGI (MDA-MB-231 breast) of 3.18 µM and a TGI (MDA-MB-435) of 3.55 µM. The TGI (NCI-H460 lung) was 2.7 µM, the TGI (NCI/ADR-RES ovarian) was 4.9 µM and the TGI (OVCAR-3 ovarian) was 2.72 µM. The TGI (OVCAR-4 ovarian) was 3.04 µM, the TGI (PC-3 prostate) was 3.01 µM and the TGI (RPMI-8226 leukemia) was 4.21 µM. The TGI (SF-268 CNS) was 3.87 µM, the TGI (SF-295 CNS) was 3.45 µM and the TGI (SK-MEL-2 melanoma) was 3.09 µM. The TGI (SK-MEL-28 melanoma) was 3.64 µM, the TGI (SK-OV-3 ovarian) was 4.09 µM and the TGI (SNB-75 CNS) was 3.3 µM. It also gave a TGI (TK-10 renal) of 3.09 µM and a TGI (U251 CNS) of 2.69 µM.

With CC(=Nc1cccc(Cl)c1)c1ccncc1 the TGI (CCRF-CEM leukemia) was greater than 100 µM, the TGI (DU-145 prostate) was greater than 100 µM and the TGI (HOP-92 NSCLC) was greater than 100 µM. The TGI (K-562 leukemia) was greater than 100 µM, the TGI (MDA-MB-231 breast) was greater than 100 µM and the TGI (MDA-MB-435) was greater than 100 µM. For the same compound, the TGI (NCI-H460 lung) was greater than 100 µM, the TGI (NCI/ADR-RES ovarian) was greater than 100 µM and the TGI (OVCAR-3 ovarian) was greater than 100 µM. The TGI (OVCAR-4 ovarian) was greater than 100 µM, the TGI (PC-3 prostate) was greater than 100 µM and the TGI (RPMI-8226 leukemia) was greater than 100 µM. For the same compound, the TGI (SF-268 CNS) was greater than 100 µM, the TGI (SF-295 CNS) was greater than 100 µM and the TGI (SK-MEL-2 melanoma) was greater than 100 µM. The TGI (SK-MEL-28 melanoma) was greater than 100 µM, the TGI (SK-OV-3 ovarian) was greater than 100 µM and the TGI (SNB-75 CNS) was greater than 100 µM. It also gave a TGI (TK-10 renal) greater than 100 µM and a TGI (U251 CNS) greater than 100 µM.

With C/C(O)=C(\C=NC(=S)c1cccnc1)C(=O)Nc1ccccc1C the TGI (CCRF-CEM leukemia) was greater than 100 µM, the TGI (DU-145 prostate) was greater than 100 µM and the TGI (HOP-92 NSCLC) was greater than 100 µM. The TGI (K-562 leukemia) was greater than 100 µM, the TGI (MDA-MB-231 breast) was greater than 100 µM and the TGI (MDA-MB-435) was greater than 100 µM. For the same compound, the TGI (NCI-H460 lung) was greater than 100 µM, the TGI (NCI/ADR-RES ovarian) was greater than 100 µM and the TGI (OVCAR-3 ovarian) was greater than 100 µM. For the same compound, the TGI (OVCAR-4 ovarian) was greater than 100 µM, the TGI (PC-3 prostate) was greater than 100 µM and the TGI (RPMI-8226 leukemia) was greater than 100 µM. For the same compound, the TGI (SF-268 CNS) was greater than 100 µM, the TGI (SF-295 CNS) was greater than 100 µM and the TGI (SK-MEL-2 melanoma) was greater than 100 µM. The TGI (SK-MEL-28 melanoma) was greater than 100 µM, the TGI (SK-OV-3 ovarian) was greater than 100 µM and the TGI (SNB-75 CNS) was greater than 100 µM. It also gave a TGI (TK-10 renal) greater than 100 µM and a TGI (U251 CNS) greater than 100 µM.

For CCO[C@@]12CCC3CC4CC[C@@](OCC)(O1)C4C32 (stereo not given in full), the TGI (CCRF-CEM leukemia) was greater than 100 µM, the TGI (DU-145 prostate) was greater than 100 µM and the TGI (HOP-92 NSCLC) was greater than 100 µM. For the same compound, the TGI (K-562 leukemia) was greater than 100 µM, the TGI (MDA-MB-231 breast) was greater than 100 µM and the TGI (MDA-MB-435) was greater than 100 µM. It also gave a TGI (NCI-H460 lung) greater than 100 µM, a TGI (NCI/ADR-RES ovarian) greater than 100 µM and a TGI (OVCAR-3 ovarian) greater than 100 µM. For the same compound, the TGI (OVCAR-4 ovarian) was greater than 100 µM, the TGI (PC-3 prostate) was greater than 100 µM and the TGI (RPMI-8226 leukemia) was greater than 100 µM. For the same compound, the TGI (SF-268 CNS) was greater than 100 µM, the TGI (SF-295 CNS) was greater than 100 µM and the TGI (SK-MEL-2 melanoma) was greater than 100 µM. It also gave a TGI (SK-MEL-28 melanoma) greater than 100 µM, a TGI (SK-OV-3 ovarian) greater than 100 µM and a TGI (SNB-75 CNS) greater than 100 µM. The TGI (TK-10 renal) was greater than 100 µM and the TGI (U251 CNS) was greater than 100 µM.

O=C(OCc1ccccc1)c1ccc(NCc2cc(O)ccc2O)cc1 gave a TGI (CCRF-CEM leukemia) of 2.8 µM, a TGI (DU-145 prostate) of 13.5 µM and a TGI (HOP-92 NSCLC) of 2.23 µM. For the same compound, the TGI (K-562 leukemia) was 6.98 µM, the TGI (MDA-MB-231 breast) was 6.08 µM and the TGI (MDA-MB-435) was 3.9 µM. It also gave a TGI (NCI-H460 lung) of 18.7 µM, a TGI (NCI/ADR-RES ovarian) of 4.18 µM and a TGI (OVCAR-3 ovarian) of 2.38 µM. It also gave a TGI (OVCAR-4 ovarian) of 2.99 µM, a TGI (PC-3 prostate) of 2.73 µM and a TGI (RPMI-8226 leukemia) greater than 100 µM. For the same compound, the TGI (SF-268 CNS) was 2.99 µM, the TGI (SF-295 CNS) was 17.1 µM and the TGI (SK-MEL-2 melanoma) was 5.23 µM. The TGI (SK-MEL-28 melanoma) was 3 µM, the TGI (SK-OV-3 ovarian) was 11.2 µM and the TGI (SNB-75 CNS) was 3.39 µM. For the same compound, the TGI (TK-10 renal) was 3.87 µM and the TGI (U251 CNS) was 2.64 µM.

O=C1C=C(NCC(c2ccccc2)c2ccccc2)C(=O)c2ncccc21 was tested, and the TGI (CCRF-CEM leukemia) was 9.7 µM, the TGI (DU-145 prostate) was 4.74 µM and the TGI (HOP-92 NSCLC) was 12.9 µM. It also gave a TGI (K-562 leukemia) of 4.1 µM, a TGI (MDA-MB-231 breast) of 11.5 µM and a TGI (MDA-MB-435) of 2.84 µM. For the same compound, the TGI (NCI-H460 lung) was 1.92 µM, the TGI (NCI/ADR-RES ovarian) was 8.05 µM and the TGI (OVCAR-3 ovarian) was 3.32 µM. For the same compound, the TGI (OVCAR-4 ovarian) was 7.29 µM, the TGI (PC-3 prostate) was 6.24 µM and the TGI (RPMI-8226 leukemia) was 5.84 µM. The TGI (SF-268 CNS) was 13.8 µM, the TGI (SF-295 CNS) was 3.51 µM and the TGI (SK-MEL-2 melanoma) was 9.13 µM. For the same compound, the TGI (SK-MEL-28 melanoma) was 10 µM, the TGI (SK-OV-3 ovarian) was 47.6 µM and the TGI (SNB-75 CNS) was 2.77 µM. The TGI (TK-10 renal) was 51.5 µM and the TGI (U251 CNS) was 11.4 µM.
